Assay results from patent US20240374546A1, “USES AND METHODS FOR PROMOTING INCREASED MITOCHONDRIAL MASS AND FUNCTION” (Brightseed, Inc., priority 2022, published 2024).
“Also recorded” adds a separate entry of the source. Read-outs that look alike come from different tables or passages of the source.

Assays:
VDAC1 = assay: VDAC-1 immunostaining of liver sections; format: in vivo, mouse; conditions: HFD+NCT vs HFD
Experimental: Frozen liver sections were permeabilized using 0.3% Triton-X and incubated in antigen retrieval solution (Antigen retrieval citrate, Biogenex) at sub-boiling temperature for 10 min. Subsequently, sections were incubated with blocking buffer containing 5% normal donkey serum (Jackson Immuno Research) followed by incubation overnight at 4° C. with mouse anti-HNF4α monoclonal antibody (1:800, Cat #PP-H1415-00, R&D Systems), rabbit polyclonal anti-VDAC antibody (1:400, cat #PA1-954A, Invitrogen) and cleaved caspase3 antibody (1:500, cat #9664, Cell Signaling). Sections were washed and incubated for 1 hour at room temperature with anti-mouse secondary antibody coupled with Alexa fluor 488 (1:400, Invitrogen) and antirabbit secondary antibody coupled with rhodamine red. Nuclei were visualized by counterstaining with DAPI (40,6-diamidino-2-phenylindole, Sigma Aldrich). Slides were mounted using fluorescence mounting medium and images were obtained at 40× magnification using an Olympus IX71 fluorescence microscope. Fluorescence intensity of HNF4α-stained nuclei and VDAC stained mitochondria was calculated using MetaMorph TL software (version 7.6.5.0, Olympus). Fold change was calculated by normalizing to values from mice fed NC.

IL-1P mRNA = assay: qPCR mouse liver, IL-1β mRNA; format: in vivo; conditions: HFD+NCT vs HFD
Experimental: (§1) Total RNA was isolated from liver tissues and primary human hepatocytes using Trizol (Invitrogen). cDNA was amplified using 3 μg of total RNA using qScript cDNA SuperMix (Quanta BioSciences, Beverly, MA, USA). Quantitative real time PCR (RT-PCR) analysis was performed using SYBR® Select Master Mix (Applied Biosystems) and an ABI 7900HT thermal cycler (Applied Biosystems, Thermo Fisher Scientific). Ct values were normalized to 18s rRNA and are expressed as fold change over samples from mice fed NC or cultured human hepatocytes without NCT.

TNFα mRNA = assay: qPCR primary human hepatocytes, TNFα mRNA; format: cell-based; conditions: NCT 5, 15, 40 μM
Experimental: Experiments with primary human hepatocytes were performed by CN-Bio (Cambridge, UK). Briefly, primary human hepatocytes (PHHs), human Kupffer cells (HKs) and human stellate cells (HSCs) were seeded onto CN-Bio's PhysioMimix LC12 MPS culture plates at 6×10^5 cells for PHHs and 6×10^4 cells for HKs and HSCs in 1.6 ml of CN-Bio's HEP-lean media with 5% FCS. Throughout the experiment the cells were maintained at a flow rate of 1 μl/s. After 24 hours (Day 1) of seeding, the media was changed to HEP-lean media and the cells were incubated until day 4 to allow the cells to form microtissues. At day 4 post seeding, media was changed to HEP-fat media and treated with DMSO or NCT (5, 15, 40 μM). Media was replaced on days 6 and 8. Cells were harvested on day 10 for RNA extraction and culture media was collected for ELISA analysis.
as §1

nitric oxide (NO) = assay: Nitric oxide assay, mouse liver; format: in vivo; conditions: HFD+NCT vs HFD, normalized to liver weight
Experimental: (§2) T6PNE cells were maintained in RPMI (5.5 mM glucose, Corning) supplemented with 10% fetal bovine serum (FBS, Sigma-Aldrich) and 1% penicillin-streptomycin (pen-strep, Gibco) in 5% CO2 at 37° C. Cells were treated with […] palmitate plus 0 or 15 μM NCT for 3 days in 10 cm plates and harvested with 500 μl PBS. For tissue specimens, snap frozen mouse liver was weighed and homogenized with PBS. NO was measured with the QuantiChrom Nitric Oxide Assay kit (D2NO-100, BioAssay Systems). Homogenized samples (150 μl) were processed for deproteination with 8 μl ZnSO4 and 8 μl NaOH. For normalization, an aliquot of samples from T6PNE cells was taken for BCA assay before deproteination. Samples and standard from kit incubated with reagents for 20 min at 60° C. and measured OD 540 nm.

T6PNE cells = assay: Nitric oxide assay, T6PNE cells treated with palmitate; format: cell-based; conditions: palmitate plus 15 μM NCT, 3 days, normalized to protein
Experimental: as §2
Palmitate (150 mM) (Sigma-Aldrich) was prepared in 50% ethanol and precomplexed with 15% fatty acid-free BSA (Research Organics, Cleveland, OH, USA) in a 37° C. water shaker. […] precomplexed palmitate was used as a 12 mM stock solution for all assays with a final concentration of 0.12 mM palmitate in cell culture medium.

[1] = Liver profile analysis of blood (VetScan); format: in vivo, mouse
Experimental: Mice were anesthetized and 100 μL of whole blood was collected via retro-orbital bleeding in lithium heparin blood collection tubes and transferred to single use VetScan mammalian liver profile reagent rotors. The levels of multiple analytes, including Alkaline Phosphatase (ALP), Alanine Aminotransferase (ALT), Gamma Glutamyl Transferase (GGT), Bile Acids (BA), TBIL (Total Bilirubin), Albumin (ALB), Blood Urea Nitrogen […] (BUN), Total Cholesterol (CHOL) were quantified using a VetScan VS2 Chemistry Analyzer (Abaxis North America, USA).

HNF4α = target: T1, HNF4α (Homo sapiens, UniProt P41235); assay: Cell-based human insulin promoter reporter assay sensitive to HNF4α activity
T1 sequence (P41235 1-474): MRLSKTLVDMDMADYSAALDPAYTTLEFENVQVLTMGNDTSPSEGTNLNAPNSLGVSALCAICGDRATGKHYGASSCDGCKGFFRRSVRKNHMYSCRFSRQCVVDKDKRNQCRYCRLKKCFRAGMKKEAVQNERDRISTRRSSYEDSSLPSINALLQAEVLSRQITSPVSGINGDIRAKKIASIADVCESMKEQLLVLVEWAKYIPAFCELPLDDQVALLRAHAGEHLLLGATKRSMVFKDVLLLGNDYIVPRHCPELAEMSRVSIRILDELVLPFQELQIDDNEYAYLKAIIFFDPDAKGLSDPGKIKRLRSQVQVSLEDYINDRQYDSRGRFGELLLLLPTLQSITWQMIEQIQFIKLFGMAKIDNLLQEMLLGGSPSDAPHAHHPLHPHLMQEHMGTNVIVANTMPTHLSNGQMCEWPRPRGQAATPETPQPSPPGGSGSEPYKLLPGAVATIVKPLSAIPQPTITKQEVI
Text: HNF4α is a nuclear receptor transcription factor that controls the expression of downstream genes that are important in multiple aspects of cellular metabolism. The classical view of HNF4α has been that its ligand binding pocket (LBP) is constitutively occupied by a fatty acid that plays a structural rather than regulatory role. However, it has been shown recently that the fatty acids in the HNF4α LBP are exchangeable in the context of full length HNF4α, particularly inside the cell. […] Using the assay in high-throughput screening, it was discovered HNF4α antagonists and more recently agonists. […] Previously, it was shown that intraperitoneal (IP) administration of NCT reversed hepatic steatosis in obese mice fed a high fat diet through a previously unsuspected pathway involving regulation by HNF4α of dihydroceramide synthesis.

With O=C(/C=C/c1ccc(O)c(O)c1)NCCc1ccc(O)cc1 [NCT, N-transcaffeoyltyramine] the “VDAC1 expression (HFD-induced decrease)” value (VDAC1) was “substantial reversal”, the “ILI p expression (FIG. 5C, mouse liver)” value (IL-1P mRNA) was “not significantly changed” and the “TNFα mRNA in cultured human hepatocytes” value (TNFα mRNA) was “decreased in a dose-responsive manner”. The “nitric oxide (NO) in liver” value (nitric oxide (NO)) was “decreased”, the “nitric oxide (NO) in cultured cells treated with palmitate” value (T6PNE cells) was “decreased” and the “other components of the liver profile panel” value ([1]; HFD versus HFD+NCT) was “no difference”. For the same compound, the “blood ALP” value ([1]; HFD+NCT vs HFD) was “unchanged”, the “blood ALT level” value ([1]; HFD+NCT vs HFD) was “reduced; also recorded: significantly decreased” and the HNF4α agonist activity (HNF4α) was “strong HNF4α agonists”. For the same compound, the HNF4α agonist activity (HNF4α; listed as N-trans caffeoyltyramine) was “potent agonist”.
